Reference: patent US5817756A, “Pseudo- and non-peptide bradykinin receptor antagonists” (Scios Inc., priority 1995, dated 1998)
Starred links: 1 amine or outer side, 2 acyl side, 3 side chain; linkers in the order of their positions; H or OH if unused. Non-standard residues stand in square brackets, D forms with d. Residues, ends and D or L forms follow the SMILES beside them. Oic = O=C(O)[C@@H]1C[C@@H]2CCCC[C@@H]2N1; X10 = O=C(C(/C=C/CN[*:1])Cc1ccccc1)[*:2]; X5 = O=C(/C=C/c1cccc(CN[*:1])c1)[*:2]; X11 = O=C(/C=C/C1CCCCC1CN[*:1])[*:2]; X13 = O=C(CCc1cccc(CN[*:1])c1)[*:2]; X2 = O=C(/C=C/c1ccccc1CN[*:1])[*:2]; Hyp = O=C(O)[C@@H]1C[C@@H](O)CN1; X8 = O=C(CCc1ccccc1CN[*:1])[*:2]; dTic = O=C(O)[C@H]1Cc2ccccc2CN1

biological target: T1, human bradykinin B2 receptor (Homo sapiens, UniProt P30411); test: Radioligand binding, H2O.2 cell membranes, 3H-NPC17731; conditions: Table 1; 3H-NPC17731; read-out: Radioligand Binding Human 3H17731
T1 construct: The HindIII/XbaI fragment of one full-length clone, 126A, was inserted into pcDNAI neo vector; expressed in transfected cells
T1 sequence (P30411 1-391): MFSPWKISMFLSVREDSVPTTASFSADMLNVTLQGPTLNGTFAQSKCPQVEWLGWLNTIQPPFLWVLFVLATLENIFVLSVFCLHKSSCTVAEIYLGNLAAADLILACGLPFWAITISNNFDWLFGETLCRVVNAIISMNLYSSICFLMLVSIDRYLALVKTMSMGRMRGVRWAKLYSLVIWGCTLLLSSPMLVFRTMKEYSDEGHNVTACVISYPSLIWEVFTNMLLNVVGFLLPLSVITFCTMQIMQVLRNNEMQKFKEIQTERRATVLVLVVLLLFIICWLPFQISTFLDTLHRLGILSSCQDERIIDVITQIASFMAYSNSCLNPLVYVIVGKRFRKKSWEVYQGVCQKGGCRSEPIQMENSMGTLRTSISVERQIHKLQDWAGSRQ
Protocol: A human bradykinin B2 receptor was expressed in CHO/K cells. Briefly, approximately 2×10^6 plaques from a human uterus λgt10 cDNA library (Clontech Laboratories; Palo Alto, Calif.) were screened using a PCR fragment containing the coding region of the rat B2 receptor. This probe was generated by random-primed synthesis in the presence of α[^32 P]dATP. Duplicate filters were hybridized overnight at 42° C. in 1M NaCl, 50 mM Tris pH 7.5, 5× Denhardt's, 200 μg/ml salmon sperm DNA, 1% SDS, and 20% formamide. The filters were washed at 65° C. in 1× SSC and 1% SDS. Coincident positively hybridizing plaques were purified and rescreened with the same probe and stringency conditions. EcoRI fragments of positive clones were inserted into Bluescript/KS II+vector (Stratagene; La Jolla, Calif.) for sequence determination.
The nucleotide sequence of the cloned human B2 receptors was determined using double-stranded DNA and the dideoxy chain termination method. Commercially available T3 and T7 oligonucleotides (USB; Cleveland, Ohio) and synthetic 21-mer oligonucleotides (DNA/RNA Synthesizer; applied Biosystems Inc.; Palo Alto, Calif.) from both the known rat sequence and the determined human sequence were used to identify the nucleotide sequence from the 5' untranslated end to the BglII site in the 3' untranslated end of the clone.
CHO/K cells were plated in 2 ml of growth medium (Ham's F12 with 10% FBS) per 6 well plate and incubated at 37° C., 5% CO2 until they were 60% confluent. For each well, 4, 12, and 16 μg of DNA was diluted in 100 μl Opti-MEM I reduced serum medium (Gibco/BRL; Gaithersburg, Md.). 12 μl of TransfectASE reagent (Gibco/BRL) was diluted in a separate aliquot of 100 μl Opti-MEM I. The DNA and TransfecASE solutions were combined, mixed gently, and incubated at 25° C. for 15 minutes. This solution was then diluted to 1 ml with Opti-MEM I. Each well was washed twice with Opti-MEM I and 1 ml of the DNA/TransfectAse complex was added to each well. After a 5 hour incubation at 37° C. and 5% CO2, 1 ml of Ham's F12 with 20% FBS was added to each well and cells were incubated overnight. Media was replaced with growth medium and incubated for additional 24 hours.
This assay measures the ability of a bradykinin antagonist compound to compete for binding to the human B2 receptor with tritiated bradykinin or tritiated NPC17731, a bradykinin analog which is known to bind the B2 receptor and act as a bradykinin antagonist.
H2O.2 cells were grown to confluency in Ham's F12 media containing 10% FBS and 500 μg/ml Geneticin. Growth media was aspirated and the monolayer washed once with Dulbecco's PBS without Ca^++ and Mg^++. Cells were scraped in Dulbecco's PBS and centrifuged at 2,000×g for 10 minutes. Pellets were resuspended in 25 mM TES, 1 mM 1,10-phenanthroline pH 6.8 buffer and homogenized using a Ploytron at setting 5 for 10 seconds. An aliquot was taken for a protein determination using a BioRad protein assay kit. Membranes were centrifuged at 48,000×g for 10 minutes at 4° C. Pellets were resuspended in the TES buffer with 0.1% BSA and 0.014% bacitracin. 0.5 ml aliquots were frozen in liquid N2 and stored at -80° C. for up to 2 weeks.
Membranes from H2O.2 cells previously prepared were thawed at 37° C. and diluted in 25 mM TES, […] 1,10-phenanthroline pH 6.8 containing BSA and bactiracin. […] Non-specific binding was determined with 1 μM bradykinin. The tubes were incubated 90 minutes at 25° C. and the assay was terminated by rapid vacuum filtration onto Whatman GF/B filters presoaked with 0.2% PEI for 3 hours followed by 2×3 ml aliquots of ice-cold 50 mM Tris, pH 7.4. Radioactivity was counted with a Beckman scintillation counter.

Row | Structure (SMILES) | Ki
1 | N=C(N)NCCC[C@@H](N)C(=O)N[C@@H](CCCNC(=N)N)C(=O)NCc1ccccc1/C=C/C(=O)N[C@@H](CO)C(=O)N1Cc2ccccc2C[C@@H]1C(=O)N1[C@H](C(=O)N[C@@H](CCCNC(=N)N)C(=O)O)C[C@@H]2CCCC[C@@H]21 (H-[dR]R[X2]S[dTic][Oic]R-OH) | 27 nM

tested on: bradykinin-induced contraction of guinea pig ileum longitudinal muscle; test: Guinea pig ileum contraction assay; assay type: cell-based; conditions: Schild analysis against bradykinin
Protocol: Guinea pig intestine was removed and placed in a Petri dish containing Tyrodes solution and cut into 3-4 cm segments.
After equilibration of the tissues, appropriate volumes of bradykinin solutions were cumulatively added to the 10 ml tissue baths to increase the concentration of bradykinin in the bath step-by-step without washing out after each single dose. Higher concentrations were added only after the preceding contraction had reached a steady value. […] Antagonism of bradykinin responses to the presence of antagonist were determined by repeating the cumulative addition procedure for bradykinin after the tissue has been exposed to the antagonist for 5 minutes. Three or four different concentrations of antagonist were studied sequentially in the same preparations. Responses were expressed as a percentage of the maximum […] elicited by bradykinin in the absence of antagonist. pA2 values were calculated by Schild analysis.

Row | Structure (SMILES) | Guinea Pig Ileum Contraction pA2
2 | N=C(N)NCCC[C@@H](N)C(=O)N[C@@H](CCCNC(=N)N)C(=O)N1CCC2(CC1)C(=O)N(CC(=O)N[C@@H](CO)C(=O)N1Cc3ccccc3C[C@@H]1C(=O)N1[C@H](C(=O)N[C@@H](CCCNC(=N)N)C(=O)O)C[C@@H]3CCCC[C@@H]31)CN2c1ccccc1 [HDArgArgX[Ph]CH2 COSerDTicOicArgOH] | 6.7
3 | N=C(N)NCCC[C@@H](N)C(=O)N[C@@H](CCCNC(=N)N)C(=O)N1CCC2(CC1)C(=O)N(CC(=O)N[C@@H](CO)C(=O)N1Cc3ccccc3C[C@@H]1C(=O)N1[C@H](C(=O)N[C@@H](CCCNC(=N)N)C(=O)O)C[C@@H]3CCCC[C@@H]31)CN2C1CCCCC1 [HDArgArgX[c-C6 H11]CH2 COSerDTicOicArgOH] | 6.4

biological target: T2, bradykinin receptor, guinea pig terminal ileum homogenate (Cavia porcellus, UniProt O70526); test: Guinea pig ileum binding of 3H-bradykinin; conditions: Table 1, read-out: Radioligand Binding Guinea Pig
T2 construct: from tissue; host or cells: terminal ileum of male Hartley guinea pigs, washed membrane homogenate
T2 sequence (O70526 1-372): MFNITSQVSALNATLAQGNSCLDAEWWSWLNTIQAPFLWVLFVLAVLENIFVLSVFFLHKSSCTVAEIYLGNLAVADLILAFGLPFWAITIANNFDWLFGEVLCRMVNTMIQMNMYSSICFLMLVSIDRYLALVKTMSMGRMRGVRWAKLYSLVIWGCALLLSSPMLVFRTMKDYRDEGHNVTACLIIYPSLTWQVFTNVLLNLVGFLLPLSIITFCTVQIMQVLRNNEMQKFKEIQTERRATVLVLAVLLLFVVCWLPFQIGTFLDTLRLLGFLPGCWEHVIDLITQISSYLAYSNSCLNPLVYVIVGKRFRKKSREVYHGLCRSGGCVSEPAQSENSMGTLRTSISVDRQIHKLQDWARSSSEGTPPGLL
Protocol: Binding of ^3 H-bradykinin was performed using the method of D. C. Manning, R. Vavrek, J. M. Stewart, and S. H. Snyder, J. Pharmacol. Exp. Ther., (1986) 237:504. The tissues used in the binding assay were terminal ileum from male Hartley guinea pigs (150-350 g). After dissection, tissues were placed in 20 volume of ice-cold buffer A (25 mM TES containing 0.2 g/l of 1,10-phenanthroline adjusted of pH 6.8 with ammonium hydroxide) and homogenized using a Polytron Tissumizer at setting 6 for 15 seconds. The homogenate was centrifuged at 50,000×g for 10 minutes, the supernatant discarded, and the pellet resuspended in ice-cold buffer A by homogenization with the Polytron. Each tissue was homogenized and centrifuged three times. The final pellet was resuspended in buffer A containing bovine serum albumin (1 g/l) and Bacitracin (0.14 g/l) to a final volume of 170 ml/g of the original tissue weight. The binding assay consisted of […] in 12×75 mm polypropylene tubes: 50 μl ^3 H-bradykinin (20,000 dpm, ~0.3 nM in the final assay volume), 100 μl displacing drug in buffer A, and 750 μl tissue homogenate. Each tray contained tubes, to which no drug was added to measure maximum binding and tubes to which bradykinin (1 μM final concentration) had been added, to measure […]. Specific binding accounted for 96-98% total binding. Tubes were incubated for 90 minutes at ambient temperature. The assays were terminated by filtration over Whatman GF/B glass fiber filters that had been pretreated for 2 hours with polyethyleneimine (2 g/l) using a Brandel Tissue Harvester, followed by washing with 4×1 ml aliquots of ice-cold 50 mM Tris, pH 7.4. Filters were dissolved in Ready-Safe Fluor (Beckman) for at least 90 minutes before quantitation by liquid scintillation spectrometry. Kd values were determined using saturation binding and analysis by EBDA (G. A. MacPherson, J. Pharmacol. Methods (1985) 213), followed by LIGAND (P. J. Munson, D. Rodbard, Anal. Biochem. (1980) 220). Ki values were determined using competitive analysis followed by EBDA and LIGAND.

Row | Structure (SMILES) | Ki
4 | N=C(N)NCCC[C@@H](N)C(=O)N[C@@H](CCCNC(=N)N)C(=O)N1CCC[C@H]1C(=O)N1C[C@H](O)C[C@H]1C(=O)NC/C=C/C(Cc1ccccc1)C(=O)N[C@@H](CO)C(=O)N1Cc2ccccc2C[C@@H]1C(=O)N1[C@H](C(=O)N[C@@H](CCCNC(=N)N)C(=O)O)C[C@@H]2CCCC[C@@H]21 (some centres unmarked) (H-[dR]RP[Hyp][X10]S[dTic][Oic]R-OH) | 358 nM
5 | C[C@H](NC(=O)/C=C/c1ccccc1CNC(=O)[C@H](CCCNC(=N)N)NC(=O)[C@H](N)CCCNC(=N)N)C(=O)N1Cc2ccccc2C[C@@H]1C(=O)N1[C@H](C(=O)N[C@@H](CCCNC(=N)N)C(=O)O)C[C@@H]2CCCC[C@@H]21 (H-[dR]R[X2]A[dTic][Oic]R-OH) | 278 nM
6 | N=C(N)NCCC[C@@H](N)C(=O)N[C@@H](CCCNC(=N)N)C(=O)NCc1ccccc1/C=C/C(=O)N[C@@H](Cc1ccccc1)C(=O)N[C@@H](CO)C(=O)N1Cc2ccccc2C[C@@H]1C(=O)N1[C@H](C(=O)N[C@@H](CCCNC(=N)N)C(=O)O)C[C@@H]2CCCC[C@@H]21 (H-[dR]R[X2]FS[dTic][Oic]R-OH) | 1270 nM
7 | N=C(N)NCCC[C@@H](N)C(=O)N[C@@H](CCCNC(=N)N)C(=O)NCc1ccccc1/C=C/C(=O)N[C@@H](CO)C(=O)N1Cc2ccccc2C[C@@H]1C(=O)N1[C@H](C(=O)N[C@@H](CCCNC(=N)N)C(=O)O)C[C@@H]2CCCC[C@@H]21 (H-[dR]R[X2]S[dTic][Oic]R-OH) | 120 ± 8 nM
8 | N=C(N)NCCC[C@@H](N)C(=O)N[C@@H](CCCNC(=N)N)C(=O)NCc1cccc(/C=C/C(=O)N[C@@H](CO)C(=O)N2Cc3ccccc3C[C@@H]2C(=O)N2[C@H](C(=O)N[C@@H](CCCNC(=N)N)C(=O)O)C[C@@H]3CCCC[C@@H]32)c1 (H-[dR]R[X5]S[dTic][Oic]R-OH) | 496 nM
9 | N=C(N)NCCC[C@@H](N)C(=O)N[C@@H](CCCNC(=N)N)C(=O)NCc1ccccc1CCC(=O)N[C@@H](CO)C(=O)N1Cc2ccccc2C[C@@H]1C(=O)N1[C@H](C(=O)N[C@@H](CCCNC(=N)N)C(=O)O)C[C@@H]2CCCC[C@@H]21 (H-[dR]R[X8]S[dTic][Oic]R-OH) | 563 nM
10 | N=C(N)NCCC[C@@H](N)C(=O)N[C@@H](CCCNC(=N)N)C(=O)NCC1CCCCC1/C=C/C(=O)N[C@@H](CO)C(=O)N1Cc2ccccc2C[C@@H]1C(=O)N1[C@H](C(=O)N[C@@H](CCCNC(=N)N)C(=O)O)C[C@@H]2CCCC[C@@H]21 (some centres unmarked) (H-[dR]R[X11]S[dTic][Oic]R-OH) | 638 nM
11 | N=C(N)NCCC[C@@H](N)C(=O)N[C@@H](CCCNC(=N)N)C(=O)NCc1cccc(CCC(=O)N[C@@H](CO)C(=O)N2Cc3ccccc3C[C@@H]2C(=O)N2[C@H](C(=O)N[C@@H](CCCNC(=N)N)C(=O)O)C[C@@H]3CCCC[C@@H]32)c1 (H-[dR]R[X13]S[dTic][Oic]R-OH) | 466 nM
